± gives the expanded uncertainty stated by the source.
Legend:
[1] = Crystal; DSC
[2] = Molar enthalpy of transition or fusion; details: Crystal; DSC

In the case of `c1ccc2ccccc2c1` [naphthalene], the Triple point temperature [1] is reported as 355.04 ± 2.1 K and the “Molar enthalpy of transition or fusion” value [2] is reported as 4.99 ± 0.478 kcal/mol.

— the NIST ThermoML archive (doi:10.1021/acs.jced.9b00064)
